# Experimental data from a melting point compilation (Tetko et al.; mined from patent text by program, amines drawn as free bases though some values may be those of a salt).
row,SMILES,melting point [°C]
1,c1cn2cnnc2c2cc3c(cc12)OCO3,267 to 269
2,CC(=O)N(c1ccccc1)c1ccccc1-c1ccc(I)cc1,135 to 136
3,CC(=O)N1CCC[C@H]1C(=O)Nc1ccc(S(N)(=O)=O)cc1,283 to 285
4,Nc1cccc(-c2ccc(CCN(CC3CCCCC3)CC3CCCCC3)cc2)n1,75 to 85
5,CC(=O)c1ccc(NS(=O)(=O)c2sc3ccc(Cl)cc3c2C)c(S(C)(=O)=O)c1,207 to 209
6,COc1cccc(Cc2ccc3nc(N)nc(N)c3c2)c1,207 to 209
7,Cc1cccc2c1-c1ccccc1C2CO (stereo unspecified),120 to 122
8,CC(=O)c1cc(N2CCCC2)ccc1NC(=O)c1cccc2c1OCO2,139 to 141
9,C#CCN1C(=O)COc2cc(F)ccc21,98 to 100
10,CC(SC(=O)c1ccccc1)C(=O)NCCC(=O)O (stereo unspecified),94 to 97
11,C[Si](C)(C)N1CCN(N=Cc2ccccc2)C(=O)C1=O,190 to 191
12,Cc1ccc2[nH]c3c(N)nn(C)c3c(=O)c2c1,> 300
13,CNC(=O)c1cccc(I)c1,94 to 97
14,COc1ccc(C(=O)Nc2ccccc2C(=O)NCCCC(=O)O)cc1,172 to 174
15,O=C(C1CCCN1)N1CCN(c2nc(N3CCCC3)nc(N3CCCC3)n2)CC1 (stereo unspecified),143
16,O=C(CCC(=O)N1CCC(c2ccc(Cl)cc2)CC1)c1ccc2c(c1)CCN(CC(=O)c1ccccc1)CC2,108 to 109
17,S=C(Cc1ccncc1)N1CCOCC1,162 to 163
18,COc1ccc(CNC(=O)c2cc3c(=O)n(CCOc4ccc(Br)cc4)c(=O)n(C)c3s2)cc1,184 to 185
19,O=CN1CCC23CC(=O)CCC2C1Cc1cccc(O)c13 (stereo unspecified),260 to 262
20,O=C1c2c(Cl)cccc2-n2cnc(-c3nc(C4CCCC4)no3)c2[C@@H]2CCCN12,177 to 178
21,CN(C)C=Cc1ncc([N+](=O)[O-])n1CCN(C)C,81 to 82

row,SMILES,melting point [°C]
1,O=C(c1ccc(-c2cccc(C(F)(F)F)c2)o1)N1Cc2c([nH]c3ccccc3c2=O)C1c1ccc2c(c1)OCO2 (stereo unspecified),219 to 221
2,CN1CNC(=N[N+](=O)[O-])N(Cc2ccc(Cl)nc2)C1,150 to 154
3,CCCc1nn(C)c2c(=O)[nH]c(-c3cc(C(=O)CN4CCCCC4)ccc3OCC)nc12,149 to 151
4,O=C(CCC(=O)N1Cc2c(cc3ccc4c(c3c2-c2ccc3c(c2)OCO3)OCO4)C1=O)OCc1ccccc1,128 to 129
5,CC(C)(C)c1ccc(-c2c(-c3ccncc3)sc3nc(=O)cc(N)n23)cc1,259 to 262
6,Cc1oc(C=Cc2cccc(Cl)c2)nc1C(=O)O,213 to 214
7,CCCc1ccc(O)c(NC(=O)C(=O)OCC)c1,155 to 160
8,CC1(C)C(=O)N(Cc2ccccc2Cl)OC1Nc1ccccc1 (stereo unspecified),99 to 101
9,Cc1noc2cc(OC3SCC(O)C(O)C3O)ccc12 (stereo unspecified),148 to 161
10,CC(C)(C)C1=CC(O)(c2ccc(F)cc2)C=C(C(C)(C)C)C1=O,123 to 125
11,O=C1c2cccc(O)c2C(=O)c2ccsc21,199 to 200
12,CC(Oc1ccc(C2CCOCC2)cc1)C(=O)O (stereo unspecified),156
13,COc1ccc(C2CNC(=O)S2)cc1OC (stereo unspecified),167 to 169
14,COC(=O)c1c(-c2ccncc2)[nH]c(-c2ccncc2)c1C,245 to 247
15,COc1cc(OC)c2c(=O)[nH]c(-c3cc(C)c(CCCN4CCCC4)c(C)c3)nc2c1,194 to 196
16,CCCCc1nc2c(N)nc3ccccc3c2n1CCCNS(=O)(=O)c1cccc2c(N(C)C)cccc12,216 to 218
17,OCCOC12CC(CO)CNC1Cc1c[nH]c3cccc2c13 (stereo unspecified),198 to 205
18,CCCCCCCCCCCCCCCCCCOc1cc(SC)cc(C(=O)O)c1,64 to 66
19,FC(F)(F)c1ccc(-c2nccc(CBr)n2)cc1,125
20,CCOC(=O)C1=C(N)NC(N)=C(C(=O)OCC)C1c1c(OC)ncnc1OC,219

# Further lines, results first:
row,melting point [°C],SMILES
1,225 to 226,Cn1ccc2ccccc2c(=NO)c1=O
2,214 to 215,CC(C)c1cc(-c2c3ccccc3c(Br)c3sc4ccccc4c23)cc(C(C)C)c1O[C@H](C)C(=O)O
3,90 to 96,CCOC(=O)COc1ccc(Cn2c(-c3ccc(OC)cc3)c(C)c3cc(OCc4ccccc4)ccc32)cc1
4,205 to 206,Cc1ccccc1NC(=O)Nc1ccc(CC(=O)O)cc1
5,75 to 76,COc1ccc(CC(=O)NC(=NOCC2CC2)c2c(F)cccc2C(F)(F)F)cc1
6,45 to 50,CC(=O)c1ccc(Oc2cccnc2)cc1
7,91 to 93,O=C(C1CCC1)N1CCC2(CC1)Cc1ccccc1O2
8,138 to 142,COCc1cc(C(=O)NC(C)(C)C)c(C(=O)OC)cn1
9,107 to 109,COc1ncnc(OC)c1C(C(C)C)N(C)C(=O)Cc1ccc(Cl)cc1 (stereo unspecified)
10,183 to 186,O=c1c(-c2ccccc2)c(CNc2ncnc3[nH]cnc23)oc2ccc(F)cc12
11,88 to 91,COC(=O)Cc1ccccc1CC(=O)NCCc1ccc(OC)c(OC)c1
12,68 to 70,CS(=O)(=O)OCCNc1ccc(C(F)(F)F)cc1[N+](=O)[O-]
13,280 to 285,C[C@@H](n1cnc2cc(-c3ccc(C(N)=O)cc3)sc2c1=O)[C@](O)(Cn1cncn1)c1ccc(F)cc1F
14,118 to 119,Cn1c(SC(C)(CO)c2ccccc2)cc2ccccc21 (stereo unspecified)
15,90,CC(=Cc1ccccc1)n1c(=O)n(CCCCCl)c2ccccc21
16,186 to 187,O=C(NCC1COCCO1)C1CCCN(c2cccc3c2C(=O)N(Cc2ccncc2)C3=O)C1 (stereo unspecified)
17,112 to 113,CC(=O)Nc1cc(C(C)(C)C)ccc1N1CCOCC1
18,151 to 152,CC(C)n1nc(-c2c(-c3ccccc3)nn3ccc(OCC(=O)N4CCN(C(=O)N(C)C)CC4)cc23)ccc1=O
19,113 to 115,COc1ccc(C(=O)Oc2c(C)c(C)c3oc(C)c(-c4ccc(C(C)C)cc4)c3c2C)cc1
20,123 to 125,CCOC(=O)c1cc2cc(CCNS(=O)(=O)c3ccc(Cl)cc3)ccc2o1
21,157 to 158,COc1ccc(S(=O)(=O)N2C(=O)C(O[Si](C)(C)C)(c3ccccc3OC)c3cc(Cl)ccc32)c(OC)c1 (stereo unspecified)
22,157 to 158,Cc1cc(SCc2sc(-c3ccc(C(F)(F)F)cc3)nc2C)c2c(c1OCC(=O)O)CCO2
23,63 to 65,Fc1ccc(-n2ccc3cc(OCCCCCCCBr)ccc32)cc1
24,181,Nc1ccc(OCOc2ccc(N)cc2[N+](=O)[O-])c([N+](=O)[O-])c1
25,168 to 170,CCCS(=O)(=O)c1cccnc1S(=O)(=O)NC(=O)Nc1nc(OC)cc(OC)n1
26,144 to 146,Cc1cccc(C(=O)Cc2ccnc(NC(=O)OC(C)(C)C)c2)c1
27,132,COC(=O)CCc1c(CCO)ccc2c1CCC(NS(=O)(=O)c1ccc(Cl)cc1)C2 (stereo unspecified)
28,250 to 253,CC(=O)C1=C(O)C(=C(C)Nc2ccc(NC(N)=O)cc2)C(=O)OC1=O
29,145 to 147,Clc1ccc2sc(=NCCc3c[nH]c4ccccc34)sc2c1
30,131 to 135,NCCc1cccc(N2C(=O)N(c3ccc(Cl)cc3Cl)Cc3cnc(Nc4ccccc4)nc32)c1
